Experimental data taken from ChEMBL document CHEMBL5244230, “Artemisinin-derived hybrids and their anticancer activity” (Eur J Med Chem, 2020).

Tests used:
MCF7 [1] = assay: Antiproliferative activity against doxorubicin resistant human MCF7 cells; type: functional, cell-based
[2] = Antiproliferative activity against mouse P388 cells assessed as reduction in cell viability measured after 72 hrs; type: functional, cell-based; conditions: 72 h
HL-60 [3] = assay: Antiproliferative activity against human HL-60 cells assessed as reduction in cell viability measured after 72 hrs; type: functional, cell-based; conditions: HL-60, 72 h
P388/ADR [4] = assay: Antiproliferative activity against mouse P388/ADR cells assessed as reduction in cell viability measured after 72 hrs; type: functional, cell-based; conditions: 72 h
P388 = assay: Potency index, ratio of test compound IC50 to dihydroartemisinin IC50 for antiproliferative activity against mouse P388 cells assessed as reduction in cell viability measured after 72 hrs; type: functional
HL-60 [5] = assay: Potency index, ratio of test compound IC50 to dihydroartemisinin IC50 for antiproliferative activity against human HL-60 cells assessed as reduction in cell viability measured after 72 hrs; type: functional
P388/ADR [6] = assay: Potency index, ratio of test compound IC50 to dihydroartemisinin IC50 for antiproliferative activity against mouse P388/ADR cells assessed as reduction in cell viability measured after 72 hrs; type: functional
HeLa [7] = assay: Potency index, ratio of artesunate IC50 to test compound IC50 for antiproliferative activity against human HeLA cells assessed as inhibition of cell growth; type: functional
HCT-116 [8] = assay: Potency index, ratio of artesunate IC50 to test compound IC50 for antiproliferative activity against human HCT-116 cells assessed as inhibition of cell growth; type: functional
HCT-116 [9] = assay: Antiproliferative activity against human HCT-116 cells; type: functional, cell-based
HeLa [10] = assay: Antiproliferative activity against human HeLa cells; type: functional, cell-based
[11] = Antiproliferative activity against human 1205Lu cells; type: functional, cell-based
[12] = Cytotoxicity against human HFF cells; type: toxicity, cell-based
[13] = Potency index, ratio of artesunate IC50 to test compound IC50 for antiproliferative activity against human 1205Lu cells assessed as inhibition of cell growth; type: functional
[14] = Antiproliferative activity against human Renal carcinoma cell; type: functional, cell-based
Ovarian cancer cell line [15] = assay: Antiproliferative activity against human Ovarian cancer cell line; type: functional, cell-based
Melanoma cell line [16] = assay: Antiproliferative activity against human Melanoma cell line; type: functional, cell-based
[17] = Antiproliferative activity against human leukaemia cell line; type: functional, cell-based
Breast carcinoma cell [18] = assay: Antiproliferative activity against human Breast cancer cell line; type: functional, cell-based
leukaemia cell line = assay: Potency index, ratio of artemisinin IC50 to test compound IC50 for antiproliferative activity against human leukaemia cell line assessed as inhibition of cell growth; type: functional
Melanoma cell line [19] = assay: Potency index, ratio of artemisinin IC50 to test compound IC50 for antiproliferative activity against human Melanoma cell line assessed as inhibition of cell growth; type: functional
Ovarian cancer cell line [20] = assay: Potency index, ratio of artemisinin IC50 to test compound IC50 for antiproliferative activity against human Ovarian cancer cell line assessed as inhibition of cell growth; type: functional
Prostatic carcinoma cell = assay: Potency index, ratio of artemisinin IC50 to test compound IC50 for antiproliferative activity against human Prostatic carcinoma cell assessed as inhibition of cell growth; type: functional
Breast carcinoma cell [21] = assay: Potency index, ratio of artemisinin IC50 to test compound IC50 for antiproliferative activity against human Breast carcinoma cell assessed as inhibition of cell growth; type: functional
P388/ADR [22] = assay: Potency index, ratio of doxorubicin IC50 to test compound IC50 for antiproliferative activity against mouse P388/ADR cells assessed as reduction in cell viability measured after 72 hrs; type: functional
A549 [23] = assay: Antiproliferative activity against human A549 cells; type: functional, cell-based
K562 = assay: Antiproliferative activity against human K562 cells; type: functional, cell-based
PC-3 = assay: Antiproliferative activity against human PC-3 cells; type: functional, cell-based
A-431 = assay: Antiproliferative activity against human A-431 cells; type: functional, cell-based
MDA-MB-231 [24] = assay: Antiproliferative activity against human MDA-MB-231 cells; type: functional, cell-based; conditions: Homo sapiens, MDA-MB-231
COLO 205 = assay: Antiproliferative activity against human COLO 205 cells; type: functional, cell-based
HEK293 = assay: Antiproliferative activity against human HEK293 cells; type: functional, cell-based
[25] = Cytotoxicity against human HEK293 cells; type: toxicity, cell-based
MDA-MB-231 [26] = assay: Antiproliferative activity against human MDA-MB-231 cells assessed as reduction in cell viability; type: functional, cell-based
MCF7 [27] = assay: Anticancer activity against human MCF7 cells; type: functional, cell-based
HCT-15 [28] = assay: Antiproliferative activity against human HCT-15 cells assessed as inhibition of cell growth at 50 uM relative to control; type: functional; design: scale not given: the % may be the effect or the level left
HepG2 = assay: Antiproliferative activity against human HepG2 cells assessed as cell growth inhibition by MTT assay; type: functional, cell-based
A549 [29] = assay: Antiproliferative activity against human A549 cells assessed as inhibition of cell growth at 50 uM relative to control; type: functional; design: scale not given: the % may be the effect or the level left
THP-1 = assay: Antiproliferative activity against human THP-1 cells assessed as inhibition of cell growth at 50 uM relative to control; type: functional; design: scale not given: the % may be the effect or the level left
HEp-2 = assay: Antiproliferative activity against human HEp-2 cells assessed as inhibition of cell growth at 50 uM relative to control; type: functional; design: scale not given: the % may be the effect or the level left
A549 [30] = assay: Antiproliferative activity against human A549 cells assessed as cell growth inhibition by MTT assay; type: functional, cell-based
HCT-15 [31] = assay: Antiproliferative activity against human HCT-15 cells assessed as cell growth inhibition by MTT assay; type: functional, cell-based
[32] = Cytotoxicity against human HCEC cells; type: toxicity, cell-based
SMMC-7721 = assay: Antiproliferative activity against human SMMC-7721 cells; type: functional, cell-based
C2G cell line = assay: Antiproliferative activity against mouse C2G cell line; type: functional, cell-based

Compound `C[C@H]1[C@@H](Oc2ccc(CCn3ccnn3)cc2)O[C@@H]2O[C@@]3(C)CC[C@H]4[C@H](C)CC[C@@H]1[C@@]24OO3` has an IC50 (MCF7 [1]) of 0.047 µM, an IC50 [2] of 0.047 µM and an IC50 (HL-60 [3]) of 0.065 µM. The IC50 (P388/ADR [4]) was 2.89 µM, the “Ratio IC50” value (P388) was 4.6 and the “Ratio IC50” value (HL-60 [5]) was 4.6. For the same compound, the “Ratio IC50” value (P388/ADR [6]) was 4.6.

In the case of `C[C@H]1[C@@H](CC(C[C@H]2O[C@@H]3O[C@@]4(C)CC[C@H]5[C@H](C)CC[C@@H]([C@H]2C)[C@@]35OO4)CS(=O)(=O)c2ccc(COC(=O)N(C)C)cc2)O[C@@H]2O[C@@]3(C)CC[C@H]4[C@H](C)CC[C@@H]1[C@@]24OO3` (some centres not stated), the “Ratio IC50” value (HeLa [7]) is reported as 12.6, the “Ratio IC50” value (HCT-116 [8]) is reported as 12.6 and the IC50 (HCT-116 [9]) is reported as 0.07 µM. For the same compound, the IC50 (HeLa [10]) was 0.07 µM, the IC50 [11] was 0.07 µM and the IC50 [12] was 4.9 µM. The “Ratio IC50” value [13] was 12.6.

In the case of `C[C@H]1[C@@H](OC/C(=N\O)O[C@H]2O[C@@H]3O[C@@]4(C)CC[C@H]5[C@H](C)CC[C@@H]([C@H]2C)[C@@]35OO4)O[C@@H]2O[C@@]3(C)CC[C@H]4[C@H](C)CC[C@@H]1[C@@]24OO3`, the IC50 [14] is reported as 0.055 µM, the IC50 (Ovarian cancer cell line [15]) is reported as 0.055 µM and the IC50 (Melanoma cell line [16]) is reported as 0.055 µM. The IC50 [17] was 0.055 µM, the IC50 (Breast carcinoma cell [18]) was 0.055 µM and the “Ratio IC50” value (leukaemia cell line) was “>=4”. The “Ratio IC50” value (Melanoma cell line [19]) was “>=4”, the “Ratio IC50” value (Ovarian cancer cell line [20]) was “>=4” and the “Ratio IC50” value (Prostatic carcinoma cell) was “>=4”. The “Ratio IC50” value (Breast carcinoma cell [21]) was “>=4” and the “Ratio IC50” value (P388/ADR [22]) was “>=4”.

Compound `C[C@H]1[C@@H](OCc2cn(-c3ccccc3C(=O)/C=C/c3ccccc3C(F)(F)F)nn2)O[C@@H]2O[C@@]3(C)CC[C@H]4[C@H](C)CC[C@@H]1[C@@]24OO3` has an IC50 (A549 [23]) of 4.06 µM, an IC50 (K562) of 4.06 µM and an IC50 (PC-3) of 4.06 µM. For the same compound, the IC50 (A-431) was 4.06 µM, the IC50 (MDA-MB-231 [24]) was 4.06 µM and the IC50 (COLO 205) was 4.06 µM. The IC50 (HEK293) was 4.06 µM and the IC50 [25] was > 100 µg/mL.

For `C[C@@H]1CC[C@H]2[C@@H](C)C(=O)O[C@@H]3O[C@@]4(C)CC[C@@H]1[C@]32OO4` [ARTEMISININ], the IC50 (MDA-MB-231 [26]) was > 50 µM, the IC50 (MCF7 [27]) was > 50 µM and the IC50 (A549 [23]) was > 50 µM. For the same compound, the IC50 [14] was ≥ 40 µM, the IC50 (Ovarian cancer cell line [15]) was ≥ 40 µM and the IC50 (Melanoma cell line [16]) was ≥ 40 µM. For the same compound, the IC50 [17] was ≥ 40 µM, the IC50 (K562) was 39 µM and the IC50 (PC-3) was 39 µM. For the same compound, the IC50 (A-431) was 39 µM, the IC50 (MDA-MB-231 [24]) was 39 µM and the IC50 (COLO 205) was 39 µM. The IC50 (HEK293) was 39 µM, the Activity (HCT-15 [28]) was 21% and the IC50 (HepG2) was > 300 µM. The Activity (A549 [29]) was 21%, the Activity (THP-1) was 21% and the Activity (HEp-2) was 21%. The IC50 (A549 [30]) was > 300 µM, the IC50 (HCT-15 [31]) was > 300 µM and the IC50 (Breast carcinoma cell [18]) was ≥ 40 µM. The IC50 [32] was > 50 µM and the IC50 (SMMC-7721) was 0.44 µM.

`Nc1ccn([C@@H]2O[C@H](CO)[C@@H](O)C2(F)F)c(=O)n1` [GEMCITABINE] gave an IC50 (C2G cell line) of 0.0037 µM.
